Data as given in US20190374572A1, “KAOLINIC CLAYS WITH ANTIMICROBIAL ACTIVITY” (IMERYS USA, INC., priority 2017, published 2019).
Marks after values point to notes of the source that are not given here.

What was measured:
[1] = tested on: E. coli; test: CFU-based bacterial assay; format: cell-based
Procedure: Each sample set was evaluated using at least one of the following assays: (1) a CFU-based bacterial assay; […] As explained above, following sample incubation the samples were evaluated for the level of bacterial growth using a CFU-based bacterial assay and/or a UV-visible bacterial assay. The CFU-based bacterial assay involves serially diluting samples by various dilution factors, plating the surface of pre-poured LB plates, and manually counting the resulting sample cultures to measure the level of growth based on log10 CFU/ml. CFU per ml were calculated by counting the number of colonies on the plate with growths ranging from 30 and 300, and then applying the equation (1): In this CFU-based bacterial assay, the levels of activity corresponding to the control samples (no E. coli) were set as the zero points.

[2] = tested on: E. coli; test: UV-visible bacterial assay (optical density at 570 nm); format: cell-based

Row | Compound | 24 Hour log10 CFU/ml [1] [log10 CFU/ml] | Antibacterial potential category from OD at 570 nm [2] | UV-Vis Abs @ 570 nm (Optical Density (OD)) [2]
1 | O.O.O.O.O.O=S(=O)([O-])[O-].[Cu+2] [Example 23, copper (II) sulfate pentahydrate] | 2.4 | – | –
2 | O.O.O.O.O.O=S(=O)([O-])[O-].[Cu+2] [Example 24, copper (II) sulfate pentahydrate] | 0 | 0.055 ^p) (key: Complete Kill Candidate (<0.250); p: Inhibition-Kill Candidate (0.250-0.350); q: Inhibition Candidate (0.351-0.450); <10^8 Growth Candidate (0.451-1.250); Robust Growth Candidate (>1.251)) | 0.055 ^p)
3 | O.O.O.O.O.O=S(=O)([O-])[O-].[Cu+2] [Example 22, copper (II) sulfate pentahydrate] | 7.8 | 0.734 ^r) (key: Complete Kill Candidate (<0.250); p: Inhibition-Kill Candidate (0.250-0.350); q: Inhibition Candidate (0.351-0.450); <10^8 Growth Candidate (0.451-1.250); Robust Growth Candidate (>1.251)) | 0.734 ^r)
4 | O.O.O.O.O.O.O.O=S(=O)([O-])[O-].[Fe+2] [Example 21, iron (II) sulfate heptahydrate] | 0 | 0.291 ^q) (key: Complete Kill Candidate (<0.250); p: Inhibition-Kill Candidate (0.250-0.350); q: Inhibition Candidate (0.351-0.450); <10^8 Growth Candidate (0.451-1.250); Robust Growth Candidate (>1.251)) | –
5 | O.O.O.O.O.O.O.O=S(=O)([O-])[O-].[Fe+2] [Example 20, iron (II) sulfate heptahydrate] | 8.8 | 1.172 ^s) (key: Complete Kill Candidate (<0.250); p: Inhibition-Kill Candidate (0.250-0.350); q: Inhibition Candidate (0.351-0.450); <10^8 Growth Candidate (0.451-1.250); Robust Growth Candidate (>1.251)) | –
